Measurements from patent US20230130831A1, “METHODS FOR DETECTING AND TREATING JOINT DISEASE” (Washington University, priority 2021, published 2023).
Where a SMILES comes first, the peptide text is derived from it. Bridges are numbered along the chain shown (N, C = ends). [ ]: non-standard residue; d: D form. The star is where a group is joined. X1 = CC1(C)C(/C=C/C=C/C=C/C=C2/N(CCC(=O)*)c3ccc4ccccc4c3C2(C)C)=[N+](CCC(=O)[O-])c2ccc3ccccc3c21

Legend:
[1] = test system: K/BxN (F1) mice with spontaneous arthritis; assay: Whole-body near-infrared fluorescence imaging in K/BxN spontaneous arthritis mice
Procedure: The K/BxN mice with spontaneous arthritis (F1) were maintained in the laboratory. To establish serum transfer arthritis (STA), male 6-8 weeks old C57BL/6J mice were injected intraperitoneally with 150-175 μL of serum derived from F1 mice (8-9 weeks old). Day 0 denoted induction of serum transfer/disease. Clinical manifestation of arthritis in each paw was assessed daily on a scale of 0-3 with 0=no swelling or erythema, 1=slight swelling or erythema, 2=moderate erythema and swelling in multiple digits or entire paw, and 3=pronounced erythema and swelling of an entire paw, with a maximum score of 12 per mouse. The ankle thickness of two hind paws was measured using calipers. Animals were monitored for distress during arthritis induction, including their ability to move around the cage and access food/water.
In the K/BxN (F1) mice with spontaneous arthritis, inflammation occurs progressively in the paws, ankle, and knee joints leading to measurable local erythema and swelling. F1 mice with severe arthritis (9-10 weeks old) were injected intravenously with LS301 and imaged 18 h post-injection for near-infrared fluorescence using the Pearl Small Animal Imaging System.
Arthritic or control (non-diseased) mice were injected intravenously with 6 nmol LS301. […] Images shown represented at least two independent experiments and were taken at 18 h post-injection with mice in dorsal orientation.
Mice were injected intravenously with 6 nmol LS301. […] Images shown were taken at 18 h post-injection with mice in dorsal orientation. (A) Early stage RA (3-4 week old K/Bxn mice). (B) Intermediate stage RA ([…] K/Bxn mice). (C) Late-stage RA (9-10 week old K/Bxn mice). (D) Normal (control) C57BL/6J mice. (E) K/Bxn mice (3-4 weeks old) were injected with cypate dye (control) instead of LS301.
K/BxN mice (9-10 wk. old) were injected intravenously with 6 nmol LS301.

[2] = test system: Raw 264.7 macrophage cells; assay: In-vitro anti-inflammatory effect: LPS-induced cytokines by cytokine bead array; assay type: cell-based; conditions: combined with near-infrared (780 nm) laser irradiation
Procedure: MTX alone and controls. Raw 264.7 macrophage cells were treated with methotrexate (MTX), LS301-MTX, LS301 alone, or LS301 combined with near-infrared (780 nm) laser irradiation. Levels of inflammation-associated (LPS-induced) cytokines, including IL-6 and IL-10, were measured by cytokine bead array.

[3] = test system: C57BL/6 mice with induced arthritis (K/BxN serum transfer); assay: Serum transfer arthritis: clinical paw scores and ankle thickness after treatment; assay type: in vivo, mouse
Procedure: To establish serum transfer arthritis (STA), male 6-8 weeks old C57BL/6J mice were injected intraperitoneally with 150-175 μL of serum derived from F1 mice (8-9 weeks old). Day 0 denoted induction of serum transfer/disease. Clinical manifestation of arthritis in each paw was assessed daily on a scale of 0-3 with 0=no swelling or erythema, 1=slight swelling or erythema, 2=moderate erythema and swelling in multiple digits or entire paw, and 3=pronounced erythema and swelling of an entire paw, with a maximum score of 12 per mouse. The ankle thickness of two hind paws was measured using calipers. Animals were monitored for distress during arthritis induction, including their ability to move around the cage and access food/water. Experiments were blinded, where the technician responsible for clinical assessment of paw score and ankle measurements was blinded to treatment groups. […] Clinical paw scores and ankle measurements were obtained daily. […] Mice received intraperitoneal DEX (10 mg/kg/dose) daily over 6 days. Clinical paw scores and ankle measurements were obtained daily. […] C57BL/6 mice with induced arthritis (K/Bxn serum transfer) were imaged with 6 nmol intravenous LS301 at day 4 post-disease induction. […] Individual limbs of the mice were scored for paw edema and measured for ankle thickness by calipers.

[4] = test system: C57BL/6J mice with serum transfer arthritis; conditions: mouse, in vivo
Procedure: Animals were shaved. Excess hair was removed using commercially available hair removal cream. Mice were anesthetized with isoflurane for injection and imaging procedures. LS301 stock (or LS301-methotrexate or LS301-methylprednisolone derivative stock) in dimethyl sulfoxide solution was diluted in phosphate-buffered saline to a final concentration of 60 μM and injected via tail vein into mice. In-vivo near-infrared fluorescence using 785 nm excitation and 820 nm emission filters was assessed pre-injection, post-injection, and/or at indicated time points post-injection with a Pearl Small Animal Imaging System (LICOR Biotechnology, Lincoln, Nebr.). Regions of interest (ROIs) for fluorescence quantitation were drawn and analyzed using the Pearl Small Animal Imaging System software.
C57BL/6J mice with serum arthritis (days 5-6 post serum transfer) (left) or control C57BL/6J mice (right) were injected intravenously with 6 nmol LS301. […] Near-infrared fluorescence images were taken on the Pearl animal imaging system with λ=820 nm. […] ROIs were drawn around each organ/limb of interest and quantitated using the Pearl animal imaging system software.
C57BL/6 mice with induced arthritis (K/Bxn serum transfer, days 5-6 post serum transfer) were injected subcutaneously (flank) with 6 nmol LS301. […] Near-infrared fluorescence images were taken on Pearl Imaging System with λ=800 nm.

pANXA2 = pANXA2 (Homo sapiens, UniProt P07355); conditions: previously found; cited from earlier work
Sequence of pANXA2 (P07355 whole entry): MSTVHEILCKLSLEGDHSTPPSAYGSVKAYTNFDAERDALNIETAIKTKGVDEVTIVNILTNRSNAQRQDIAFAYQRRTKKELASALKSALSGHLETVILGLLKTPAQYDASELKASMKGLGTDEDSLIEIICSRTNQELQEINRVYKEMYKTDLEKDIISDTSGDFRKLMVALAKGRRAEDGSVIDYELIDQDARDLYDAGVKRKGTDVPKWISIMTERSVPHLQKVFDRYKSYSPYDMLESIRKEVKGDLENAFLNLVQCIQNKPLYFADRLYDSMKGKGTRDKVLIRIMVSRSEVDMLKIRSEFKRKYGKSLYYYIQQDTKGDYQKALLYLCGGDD

CC1(C)C(/C=C/C=C/C=C/C=C2/N(CCC(=O)N[C@@H]3CSSC[C@@H](C(=O)N[C@@H](CCCCN)C(=O)O)NC(=O)[C@@H]4CCCN4C(=O)[C@H](CO)NC(=O)[C@H](CC(=O)O)NC(=O)[C@H](CCCNC(=N)N)NC(=O)CNC3=O)c3ccc4ccccc4c3C2(C)C)=[N+](CCC(=O)[O-])c2ccc3ccccc3c21 [LS301, cypate-cyclic (DCys-Gly-Arg-Asp-Ser-Pro-Cys)-Lys-OH] (X1-[dC]GRDSPCK-OH; disulfide 1-7)
clearance from the body ([1]; mouse, in vivo, iv): 2.5 days
time point of contrast post-injection ([1]; mouse, in vivo, iv): ~18 h
inflammatory state of macrophages (LPS-induced cytokines incl. IL-6, IL-10) [2]: suppress the inflammatory state of macrophages
effect on disease progression ([3]; imaging dose (6 nmol), LS301 alone): did not significantly affect disease progression
kidney signal, arthritic mice vs controls [4]: possible nonsignificant trend toward increased kidney signal in arthritic mice when compared to controls
affinity for pANXA2 (pANXA2): high affinity

CC1(C)C(/C=C/C=C/C=C/C=C2/N(CCC(=O)O)c3ccc4ccccc4c3C2(C)C)=[N+](CCC(=O)[O-])c2ccc3ccccc3c21 [cypate, reference compound]
accumulation in extremities / regions of arthritic joint disease ([1]; K/BxN F1 arthritic mice, i.v., 18 h): No accumulation was found in extremities

CN(Cc1cnc2nc(N)nc(N)c2n1)c1ccc(C(=O)N[C@@H](CCC(=O)O)C(=O)O)cc1 [methotrexate, reference compound]
clinical scores ([3]; three doses i.p. 2 mg/kg/dose over seven days, day 23 post-treatment initiation): clinical scores of mice had significantly decreased
